Laboratory results taken from ChEMBL document CHEMBL3885861, “Open TG-GATES”.

Species: Rattus norvegicus
Test: Open TG-GATES - Regimen: Daily Repeat
Format: toxicity, organism-based, Sprague-Dawley
Design: regimen Daily Repeat, gender Male, age 6 weeks
Details: in vivo, po, route gavage; for Ht / Lym / MCHC / Mono / Neu / Plat / RBC / Ret / WBC / Bas / Eos / Fbg / Hb / PT / MCV: tissue Blood; for KIDNEY_L / KIDNEY_R / KIDNEY_TOTAL: tissue Kidney; for ALP / ALT / AST / BUN / CRE / Ca / DBIL / IP / K / Na / PL / RALB / TBIL / TC / TG / TP / gamma-GTP / LDH: tissue Plasma; for LIVER: tissue Liver
[1] = 120 mg/kg, 72 h, dose level Middle, time 3 day
[2] = 120 mg/kg, […], dose level Middle, time 7 day
[3] = 120 mg/kg, […], dose level Middle, time 14 day
[4] = 120 mg/kg, […], dose level Middle, time 28 day
[5] = 400 mg/kg, 72 h, dose level High, time 3 day
[6] = 400 mg/kg, […], dose level High, time 7 day
[7] = 400 mg/kg, […], dose level High, time 14 day
[8] = 400 mg/kg, […], dose level High, time 28 day

CCC(C)(C)C(=O)O[C@H]1C[C@@H](C)C=C2C=C[C@H](C)[C@H](CC[C@@H]3C[C@@H](O)CC(=O)O3)[C@H]21 [SIMVASTATIN]
Ht [1]: 41%
Lym [1]: 80.2%
MCHC [1]: 33.2%
Mono [1]: 8.4%
Neu [1]: 10.2%
Plat [1]: 119.9 x10_4/uL
RBC [1]: 644.2 x10_4/ul
Ret [1]: 5.5%
WBC [1]: 81 x10_2/uL
KIDNEY_L [1]: 1 g
KIDNEY_R [1]: 1 g
KIDNEY_TOTAL [1]: 2 g
ALP [1]: 885.4 IU/L
ALT [1]: 42 IU/L
AST [1]: 62.2 IU/L
BUN [1]: 16.4 mg/dL
CRE [1]: 0.6 mg/dL
Ca [1]: 10.8 mg/dL
DBIL [1]: 0.012 mg/dL
IP [1]: 7.3 mg/dL
K [1]: 4.4 meq/L
Na [1]: 139.6 meq/L
PL [1]: 131.2 mg/dL
RALB [1]: 3.9 g/dL
TBIL [1]: 0.3 mg/dL
TC [1]: 81.6 mg/dL
TG [1]: 48.2 mg/dL
TP [1]: 5.6 g/dL
gamma-GTP [1]: 1.4 IU/L
TERMINAL_BW [2]: 245.2 g
TERMINAL_BW [3]: 292.4 g
TERMINAL_BW [4]: 375.8 g
Bas [2]: 0%
Eos [2]: 1%
Fbg [2]: 222.8 mg/dL
Hb [2]: 13.3 g/dL
Ht [2]: 40%
Lym [2]: 83.8%
MCHC [2]: 33.1%
Mono [2]: 7.4%
Neu [2]: 8.4%
PT [2]: 11 s
Plat [2]: 123.4 x10_4/uL
RBC [2]: 630.6 x10_4/ul
Ret [2]: 3.3%
WBC [2]: 106.6 x10_2/uL
Bas [3]: 0%
Eos [3]: 0.8%
Fbg [3]: 223.6 mg/dL
Hb [3]: 14.2 g/dL
Ht [3]: 42.5%
Lym [3]: 80%
MCHC [3]: 33.3%
Mono [3]: 5.2%
Neu [3]: 14.4%
Plat [3]: 121.2 x10_4/uL
RBC [3]: 698 x10_4/ul
Ret [3]: 6%
Bas [4]: 0%
Eos [4]: 1%
Fbg [4]: 238.8 mg/dL
Hb [4]: 15 g/dL
Ht [4]: 45.4%
Lym [4]: 83.4%
MCHC [4]: 33.1%
MCV [4]: 58.3 fL
Mono [4]: 5.2%
PT [4]: 11.8 s
Plat [4]: 116.8 x10_4/uL
RBC [4]: 778.6 x10_4/ul
Ret [4]: 2.4%
WBC [4]: 114.5 x10_2/uL
KIDNEY_L [2]: 1.1 g
KIDNEY_R [2]: 1.1 g
KIDNEY_TOTAL [2]: 2.2 g
KIDNEY_L [3]: 1.2 g
KIDNEY_R [3]: 1.2 g
KIDNEY_TOTAL [3]: 2.4 g
KIDNEY_L [4]: 1.4 g
KIDNEY_R [4]: 1.4 g
KIDNEY_TOTAL [4]: 2.7 g
LIVER [2]: 13.1 g
LIVER [3]: 14.5 g
LIVER [4]: 17.7 g
ALP [2]: 848 IU/L
ALT [2]: 38.2 IU/L
AST [2]: 67.4 IU/L
BUN [2]: 21.4 mg/dL
CRE [2]: 0.6 mg/dL
DBIL [2]: 0.012 mg/dL
IP [2]: 7.1 mg/dL
K [2]: 4.8 meq/L
LDH [2]: 124.8 IU/L
Na [2]: 141.2 meq/L
PL [2]: 140.8 mg/dL
RALB [2]: 3.9 g/dL
TBIL [2]: 0.3 mg/dL
TC [2]: 74.6 mg/dL
TG [2]: 78.8 mg/dL
TP [2]: 5.8 g/dL
gamma-GTP [2]: 0.8 IU/L
ALP [3]: 763.4 IU/L
ALT [3]: 37.6 IU/L
AST [3]: 67 IU/L
BUN [3]: 20.6 mg/dL
CRE [3]: 0.6 mg/dL
Ca [3]: 11 mg/dL
DBIL [3]: 0.01 mg/dL
IP [3]: 7.2 mg/dL
K [3]: 4.3 meq/L
LDH [3]: 110.6 IU/L
Na [3]: 140.4 meq/L
PL [3]: 150.4 mg/dL
RALB [3]: 4 g/dL
TBIL [3]: 0.4 mg/dL
TC [3]: 76.2 mg/dL
TG [3]: 119.6 mg/dL
TP [3]: 5.9 g/dL
gamma-GTP [3]: 1.2 IU/L
ALP [4]: 716 IU/L
ALT [4]: 36.6 IU/L
AST [4]: 59.4 IU/L
BUN [4]: 19.8 mg/dL
CRE [4]: 0.7 mg/dL
Ca [4]: 10.9 mg/dL
DBIL [4]: 0.016 mg/dL
IP [4]: 6.4 mg/dL
K [4]: 4.2 meq/L
LDH [4]: 107.8 IU/L
Na [4]: 142.6 meq/L
PL [4]: 139.6 mg/dL
RALB [4]: 4 g/dL
TBIL [4]: 0.3 mg/dL
TC [4]: 71.4 mg/dL
TG [4]: 128.2 mg/dL
TP [4]: 6.2 g/dL
gamma-GTP [4]: 2.2 IU/L
TERMINAL_BW [5]: 181.9 g
Bas [5]: 0%
Eos [5]: 1%
Fbg [5]: 202.2 mg/dL
Hb [5]: 15.1 g/dL
Ht [5]: 45.5%
Lym [5]: 72.4%
MCHC [5]: 33.3%
Mono [5]: 5.8%
Neu [5]: 20.6%
PT [5]: 15.6 s
Plat [5]: 126.8 x10_4/uL
RBC [5]: 699.4 x10_4/ul
Ret [5]: 2.6%
WBC [5]: 96.5 x10_2/uL
KIDNEY_L [5]: 0.9 g
KIDNEY_R [5]: 0.9 g
KIDNEY_TOTAL [5]: 1.8 g
LIVER [5]: 9.1 g
ALP [5]: 613.8 IU/L
ALT [5]: 173.4 IU/L
AST [5]: 134 IU/L
BUN [5]: 15 mg/dL
CRE [5]: 0.5 mg/dL
Ca [5]: 10 mg/dL
DBIL [5]: 0.012 mg/dL
IP [5]: 6.9 mg/dL
K [5]: 5 meq/L
LDH [5]: 155.8 IU/L
Na [5]: 137.2 meq/L
PL [5]: 82.2 mg/dL
RALB [5]: 4 g/dL
TBIL [5]: 0.4 mg/dL
TC [5]: 51.4 mg/dL
TG [5]: 17.6 mg/dL
TP [5]: 5.3 g/dL
gamma-GTP [5]: 1.6 IU/L
TERMINAL_BW [6]: 208 g
TERMINAL_BW [7]: 268.6 g
TERMINAL_BW [8]: 365.2 g
Bas [6]: 0%
Eos [6]: 1%
Fbg [6]: 212.2 mg/dL
Hb [6]: 13.7 g/dL
Ht [6]: 41.7%
Lym [6]: 78%
MCHC [6]: 32.8%
Mono [6]: 7.5%
Neu [6]: 13.5%
PT [6]: 12.8 s
Plat [6]: 138.7 x10_4/uL
RBC [6]: 658.2 x10_4/ul
Ret [6]: 3.4%
WBC [6]: 98.8 x10_2/uL
Bas [7]: 0%
Eos [7]: 1%
Fbg [7]: 255.2 mg/dL
Hb [7]: 13.5 g/dL
Ht [7]: 40.7%
Lym [7]: 72.8%
MCHC [7]: 33.1%
Mono [7]: 9.5%
Neu [7]: 17.2%
PT [7]: 12.1 s
Plat [7]: 148 x10_4/uL
RBC [7]: 673.5 x10_4/ul
Ret [7]: 8.1%
WBC [7]: 114.1 x10_2/uL
Bas [8]: 0%
Eos [8]: 1%
Fbg [8]: 234.2 mg/dL
Hb [8]: 14.6 g/dL
Ht [8]: 44%
Lym [8]: 80.2%
MCHC [8]: 33.1%
MCV [8]: 58.5 fL
Mono [8]: 5.6%
Neu [8]: 13.8%
PT [8]: 13 s
Plat [8]: 130.1 x10_4/uL
RBC [8]: 753.2 x10_4/ul
Ret [8]: 3%
WBC [8]: 117.8 x10_2/uL
KIDNEY_L [6]: 1 g
KIDNEY_R [6]: 1 g
KIDNEY_TOTAL [6]: 1.9 g
KIDNEY_L [7]: 1.2 g
KIDNEY_R [7]: 1.2 g
KIDNEY_TOTAL [7]: 2.4 g
KIDNEY_L [8]: 1.3 g
KIDNEY_R [8]: 1.4 g
KIDNEY_TOTAL [8]: 2.7 g
LIVER [6]: 12.1 g
LIVER [7]: 16 g
LIVER [8]: 20.6 g
ALP [6]: 693.8 IU/L
ALT [6]: 96.2 IU/L
AST [6]: 100.2 IU/L
BUN [6]: 21 mg/dL
CRE [6]: 0.6 mg/dL
Ca [6]: 11.3 mg/dL
DBIL [6]: 0.025 mg/dL
IP [6]: 6.2 mg/dL
K [6]: 4.7 meq/L
LDH [6]: 136 IU/L
Na [6]: 141.2 meq/L
PL [6]: 116.8 mg/dL
RALB [6]: 4.1 g/dL
TBIL [6]: 0.3 mg/dL
TC [6]: 67.5 mg/dL
TG [6]: 36.8 mg/dL
TP [6]: 5.9 g/dL
gamma-GTP [6]: 1.2 IU/L
ALP [7]: 717.5 IU/L
ALT [7]: 100.5 IU/L
AST [7]: 275.8 IU/L
BUN [7]: 19.2 mg/dL
CRE [7]: 0.6 mg/dL
Ca [7]: 10.8 mg/dL
DBIL [7]: 0.0075 mg/dL
IP [7]: 6.7 mg/dL
K [7]: 4.2 meq/L
LDH [7]: 121.2 IU/L
Na [7]: 140 meq/L
PL [7]: 115 mg/dL
RALB [7]: 3.7 g/dL
TBIL [7]: 0.3 mg/dL
TC [7]: 66.5 mg/dL
TG [7]: 60.5 mg/dL
TP [7]: 5.5 g/dL
gamma-GTP [7]: 2.2 IU/L
ALP [8]: 691.8 IU/L
ALT [8]: 55 IU/L
AST [8]: 71.6 IU/L
BUN [8]: 23.6 mg/dL
CRE [8]: 0.6 mg/dL
Ca [8]: 10.9 mg/dL
DBIL [8]: 0.018 mg/dL
IP [8]: 5.6 mg/dL
K [8]: 4.4 meq/L
LDH [8]: 132 IU/L
Na [8]: 142.6 meq/L
PL [8]: 116.2 mg/dL
RALB [8]: 4.1 g/dL
TBIL [8]: 0.3 mg/dL
TC [8]: 57.6 mg/dL
TG [8]: 85.4 mg/dL
TP [8]: 6.1 g/dL
gamma-GTP [8]: 1.2 IU/L
